What was measured:
[1] = Hansen solubility parameters of blends, single components, MEK and acetone; details: MEK, acetone, δ^2 = δD^2 + δP^2 + δH^2
Text: In some embodiments, a solvent composition according to the present disclosure includes an acetate ester, such as MA, EA, or TBAc, in combination with additional reagents to increase dispersion and decrease hydrogen bonding and/or to decrease the polarity of the composition. […] Accordingly, in some embodiments, a solvent composition according to the present disclosure may be formulated according to Hansen solubility parameters (HSP) (Hansen, 1999) and may have: a dispersion parameter (δD) between about 7.7 and about 8.5; a polarity parameter (δP) between about 4 and about 5.2; and a hydrogen bonding parameter (δH) between about 3.0 and about 3.6. Such parameters result in a Hansen Solubility Parameter (δ MPa) of about 9.0 to about 10.4, where δ^2=δD^2+δP^2+δH^2.
In alternative embodiments, a solvent composition according to the present disclosure may have: a dispersion parameter (δD) between about 7.5 and about 8; a polarity parameter (δP) between about 3 and about 4; and a hydrogen bonding parameter (δH) between about 3.2 and about 4. Such parameters result in a Hansen Solubility Parameter (δ MPa) of about 8.68 to about 9.79, where δ^2=δD^2+δP^2+δH^2. In some embodiments, a solvent composition according to the present disclosure includes a composition with HSP values similar to those of acetone. […]

[2] = reference solvents; cited from earlier work
[3] = single components, MEK, acetone; cited from earlier work
[4] = Evaporation rate relative to n-butyl acetate (=1); assay type: physicochemical; details: Example 2
Text: Evaporation rates can be expressed relative to the evaporation of n-butyl acetate (=1), as a standard.

[5] = published value; cited from earlier work
[6] = cited from earlier work

SMILES | δ (MPa) [1] [MPa] | flash point [2] [°C] | δD (dispersion) [3] | δH (hydrogen bonding) [3] | δP (polarity) [3] | evaporation rate [4] | published MEK ER [5] | solubility in water ([6]; room temperature) [%] | stability ([6]; strong aqueous bases or aqueous acids)
CC(C)=O [Acetone, acetone, reference compound] | 9.929 | −20 | 7.7 | 3.5 | 5.2 |  |  |  | 
COC(=O)OC [DMC, dimethyl carbonate] |  |  | 8.5 | 1.9 | 4.7 |  |  |  | 
CCOC(C)=O [Ethyl acetate, ethyl acetate] |  |  | 7.7 | 3.5 | 2.3 |  |  |  | 
CCC(C)=O [MEK, methyl ethyl ketone, reference compound] |  | −9 | 7.82 | 2.49 | 4.4 | 3.8 | 4.0 |  | 
COC(C)=O [Methyl acetate, methyl acetate] |  | −4 | 7.58 | 3.72 | 3.52 |  |  | 25 | not stable
CC1COC(=O)O1 (stereo not drawn) [PC, propylene carbonate] |  |  | 9.8 | 2 | 8.8 |  |  |  | 
FC(F)(F)c1ccc(Cl)cc1 [PCBTF, parachlorobenzotrifluoride] |  |  | 8.8 | 1.9 | 2.9 |  |  |  | 
CC(=O)OC(C)(C)C [TBA, tert-butyl acetate] | 7.765 |  | 7 | 2.9 | 1.7 |  |  |  | 
